# Measured values as given in patent US8975417B2, “Pyrazolopyrrolidine derivatives and their use in the treatment of disease” (Novartis AG, priority 2013, dated 2015).
# Tests used:
# [1] = biological target: His-Brd3(20-477) (Homo sapiens (Human), UniProt Q15059); test: TR-FRET in-vitro binding assay for BRD3; conditions: biochemical
# Summary of the method: (§1)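 Assay buffer HEPES pH 7.5/NaCl/Tween20/BSA; protein solution 45 nM, peptide solution 60 nM acetyl-H4 (AcK5,8,12,16). Incubated 30 °C for 35 min; Eu-anti-His6 and SA-APC detection, TR-FRET read.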
# [2] = biological target: nuclear BRD4-NUT foci in HCC2494 NUT midline carcinoma cells (Homo sapiens (Human), UniProt O60885+Q86Y26); test: Nut-foci formation assay; type: cell-based; conditions: 24 hours, read-out: HCS Brd4-NUT IC50
# Method: HCC2494 NUT midline carcinoma cells (expressing BRD4-NUT-fusion) were obtained from the University of Texas Southwestern and cultured in RPMI-1640 medium containing 10% Foetal Calf Serum at 37° C. in a humidified 5% CO2 incubator.
# Compound-mediated inhibition of BRD4 activity was monitored by quantification of the number and intensity of nuclear BRD4-NUT foci using automated immunofluorescence microscopy. Briefly, 5000 cells in 20 μL fresh medium were seeded into Poly-D-Lysine-precoated 384-well plates and incubated overnight at 37° C. and 5% CO2, followed by addition of 5 μl medium containing compound dilutions at 5-fold their final intended concentration. Dose-response effects were assessed by 3-fold serial dilutions of the test compound, starting at 10 μM. Following incubation of the cells for 24 hours at 37° C. and 5% CO2, the cells were fixed by incubation with 3.7% formaldehyde for 10 min, followed by immunofluorescence staining using rabbit anti-NUT (Cell Signaling Technologies, Cat#3625) as primary, and AlexaFluor488-labeled goat anti-rabbit (Invitrogen, Cat#A11008) as secondary antibody (latter complemented with 1 μg/mL Hoechst33342 as DNA dye). Assay plates were imaged using the appropriate filter sets on the Cellomics VTi automated fluorescence microscopy platform (ThermoFisher Scientific) and the population average of the number of NUT-foci per nucleus is quantified using the Cellomics Spot Detection BioApplication image analysis algorithm (ThermoFisher Scientific). The effect of a particular test compound concentration on NUT-foci number and intensity is expressed as percentage of the value obtained for cells treated with vehicle only (DMSO, 0.1% final concentration), which was set as 100. Compound concentrations leading to half-maximal (IC50) inhibition of the aforementioned readout parameters were determined using standard four parameter curve fitting.
# [3] = test system: THP-1 cells; test: Cell growth inhibition assay (CellTiter-Glo), THP-1; type: cell-based; conditions: Homo sapiens, read-out: THP-1 TGI
# Summary of the method: (§2)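 Luminescent ATP quantification served as the viability read-out following incubation at 37° C. under 5% CO2. A day-0 reference plate allowed scaling from −100% (medium) to 100% (0.1% DMSO vehicle), with IC50 and TGI fitted by a four-parameter model.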
# [4] = test system: MV-4-11 cells; test: Cell growth inhibition assay (CellTiter-Glo), MV-4-11; type: cell-based; conditions: Homo sapiens, MV4-11, read-out: MV-4-11 TGI
# Summary of the method: as §2
# [5] = biological target: His-Brd2(60-472) (Homo sapiens (Human), UniProt P25440); test: TR-FRET in-vitro binding assay for BRD2; conditions: biochemical
# Summary of the method: as §1
# [6] = test system: K-562 cells; test: Cell growth inhibition assay (CellTiter-Glo), K-562; type: cell-based, human; conditions: Homo sapiens, K562, read-out: K-562 TGI
# Summary of the method: as §2
# [7] = biological target: His-Brd4(44-477) (Homo sapiens (Human), UniProt O60885); test: TR-FRET in-vitro binding assay for BRD4; conditions: biochemical
# Summary of the method: as §1
# Chain of His-Brd3(20-477) (Q15059 20-477): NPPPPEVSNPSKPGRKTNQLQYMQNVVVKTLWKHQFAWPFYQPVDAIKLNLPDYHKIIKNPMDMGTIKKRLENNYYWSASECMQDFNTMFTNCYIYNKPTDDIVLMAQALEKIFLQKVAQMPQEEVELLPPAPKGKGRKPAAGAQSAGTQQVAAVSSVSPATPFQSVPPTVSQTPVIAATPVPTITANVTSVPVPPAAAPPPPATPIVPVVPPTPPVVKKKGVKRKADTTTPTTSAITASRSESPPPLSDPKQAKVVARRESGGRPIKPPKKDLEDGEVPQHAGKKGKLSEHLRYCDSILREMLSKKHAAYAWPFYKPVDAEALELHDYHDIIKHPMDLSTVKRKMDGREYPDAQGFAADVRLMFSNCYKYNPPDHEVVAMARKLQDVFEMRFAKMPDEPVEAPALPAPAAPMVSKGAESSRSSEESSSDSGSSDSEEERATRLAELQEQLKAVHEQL
# Chain of His-Brd2(60-472) (P25440 60-472): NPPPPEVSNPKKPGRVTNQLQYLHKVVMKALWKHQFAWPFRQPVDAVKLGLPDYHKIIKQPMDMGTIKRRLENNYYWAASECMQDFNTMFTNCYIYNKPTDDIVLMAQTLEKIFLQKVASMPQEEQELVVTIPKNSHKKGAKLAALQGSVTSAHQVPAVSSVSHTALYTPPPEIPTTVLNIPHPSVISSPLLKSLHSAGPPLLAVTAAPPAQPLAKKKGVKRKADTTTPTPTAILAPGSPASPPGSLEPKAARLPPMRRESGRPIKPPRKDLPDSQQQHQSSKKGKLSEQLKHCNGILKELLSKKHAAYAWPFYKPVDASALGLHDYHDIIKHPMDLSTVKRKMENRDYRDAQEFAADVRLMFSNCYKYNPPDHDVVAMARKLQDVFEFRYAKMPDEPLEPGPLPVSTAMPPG
SMILES,IC50 [1],IC50 [2],IC (total growth inhibition) [3],IC (total growth inhibition) [4],IC50 [5],IC (total growth inhibition) [6],IC50 [7]
"Cc1c2c(nn1C1CC1)C(=O)N(c1cc(Cl)c(=O)n(C)c1)[C@@H]2c1ccc(Cl)cc1 [Example 19, (R)-5-(5-chloro-1-methyl-6-oxo-1,6-dihydropyridin-3-yl)-4-(4-chlorophenyl)-2-cyclopropyl-3-methyl-4,5-dihydropyrrolo[3,4-c]pyrazol-6(2H)-one]",65 nM,118 nM,0.125 µM,0.043 µM,78 nM,> 10 µM,73 nM
"Cc1cc(N2C(=O)c3n[nH]cc3C2c2ccc(Cl)cc2)cn(C)c1=O (stereo not shown) [Example 26, 4-(4-chlorophenyl)-5-(1,5-dimethyl-6-oxo-1,6-dihydropyridin-3-yl)-4,5-dihydropyrrolo[3,4-c]pyrazol-6(2H)-one]",,698 nM,0.772 µM,0.317 µM,210 nM,> 10 µM,150 nM
"Cc1cc(N2C(=O)c3nn(C4COC4)c(C)c3C2c2ccc(Cl)cc2)cn(C)c1=O (stereo not shown) [Example 134, 4-(4-chlorophenyl)-5-(1,5-dimethyl-6-oxo-1,6-dihydropyridin-3-yl)-3-methyl-2-(oxetan-3-yl)-4,5-dihydropyrrolo[3,4-c]pyrazol-6(2H)-one]",130 nM,92.2 nM,0.291 µM,0.187 µM,190 nM,> 10 µM,160 nM
"Cc1cc(N2C(=O)c3nn(C4CN(C)C4)c(C)c3C2c2ccc(Cl)cc2)cn(C)c1=O (stereo not shown) [Example 139, 4-(4-chlorophenyl)-5-(1,5-dimethyl-6-oxo-1,6-dihydropyridin-3-yl)-3-methyl-2-(1-methylazetidin-3-yl)-4,5-dihydropyrrolo[3,4-c]pyrazol-6(2H)-one]",120 nM,366 nM,0.399 µM,0.107 µM,160 nM,> 10 µM,190 nM
"CNC(=O)n1nc2c(c1C)C(c1ccc(Cl)cc1)N(c1cc(C)c(=O)n(C)c1)C2=O (stereo not shown) [Example 144, 4-(4-chlorophenyl)-5-(1,5-dimethyl-6-oxo-1,6-dihydropyridin-3-yl)-N,3-dimethyl-6-oxo-5,6-dihydropyrrolo[3,4-c]pyrazole-2(4H)-carboxamide]",140 nM,134 nM,0.361 µM,0.107 µM,160 nM,> 10 µM,150 nM
"CNC(=O)n1nc2c(c1C)C(c1ccc(Cl)cc1)N(c1cc(C)c3nnc(C)n3c1)C2=O (stereo not shown) [Example 146, 4-(4-chlorophenyl)-5-(3,8-dimethyl-[1,2,4]triazolo[4,3-a]pyridin-6-yl)-N,3-dimethyl-6-oxo-5,6-dihydropyrrolo[3,4-c]pyrazole-2(4H)-carboxamide]",200 nM,91 nM,0.283 µM,0.0546 µM,190 nM,> 10 µM,150 nM
"CCc1nn(C(=O)N(C)C)c2c1C(c1ccc(Cl)cc1)N(c1cc(C)c(=O)n(C)c1)C2=O (stereo not shown) [Example 147, 4-(4-chlorophenyl)-5-(1,5-dimethyl-6-oxo-1,6-dihydropyridin-3-yl)-3-ethyl-N,N-dimethyl-6-oxo-5,6-dihydropyrrolo[3,4-c]pyrazole-1(4H)-carboxamide]",120 nM,73.1 nM,0.365 µM,0.1 µM,140 nM,> 10 µM,130 nM
"CNc1cc(N2C(=O)c3c(c(C)nn3C3CC3)[C@H]2c2ccc(Cl)cc2)nn2c(C)nnc12 [Example 161, (R)-4-(4-chlorophenyl)-1-cyclopropyl-3-methyl-5-(3-methyl-8-(methylamino)-[1,2,4]triazolo[4,3-b]pyridazin-6-yl)-4,5-dihydropyrrolo[3,4-c]pyrazol-6(1H)-one]",24 nM,40.1 nM,0.152 µM,0.102 µM,33 nM,> 10 µM,21 nM
